Experimental data as given in patent US20070054916A1, “Aryl nitrogen-containing bicyclic compounds and methods of use” (Amgen Inc., priority 2004, published 2007).

Tested on: production of TNF by monocytes activated with bacterial lipopolysaccharide (LPS)
Experiment: Lipopolysaccharide-activated monocyte TNF production assay
Format: cell-based
Conditions: Homo sapiens, read-out: IC50 values in the monocyte assay (LPS induced TNF release)
Procedure: Lipopolysaccharide-Activated Monocyte TNF Production Assay
Test compounds were evaluated in vitro for the ability to inhibit the production of TNF by monocytes activated with bacterial lipopolysaccharide (LPS). Fresh residual source leukocytes (a byproduct of plateletpheresis) were obtained from a local blood bank, and peripheral blood mononuclear cells (PBMCs) were isolated by density gradient centrifugation on Ficol-Paque Plus (Pharmacia). PBMCs were suspended at 2×10^6/ml in DMEM supplemented to contain 2% FCS, 10 mM, 0.3 mg/ml […], 100 U/ml penicillin G and […] streptomycin sulfate (complete media). Cells were plated into Falcon flat bottom, 96 well culture plates (200 μl/well) and cultured overnight at 37° C. and 6% CO2. Non-adherent cells were removed by washing with 200 μl/well of fresh medium. Wells containing adherent cells (˜70% monocytes) were replenished with 100 μl of fresh medium.
Preparation of Test Compound Stock Solutions
Test compounds were dissolved in […]. Compound stock solutions were prepared to an initial concentration of […]. Stocks were diluted initially to 20-200 μM in complete media. Nine two-fold serial dilutions of each compound were then prepared in complete medium.
Treatment of Cells with Test Compounds and Activation of TNF Production with Lipopolysaccharide
One hundred microliters of each test compound dilution were added to microtiter wells containing adherent monocytes and 100 μl complete medium. Monocytes were cultured with test compounds for 60 min at which time 25 μl of complete medium containing 30 ng/ml lipopolysaccharide from E. coli K532 were added to each well. Cells were cultured an additional 4 hrs. Culture supernatants were then removed and TNF presence in the supernatants was quantified using an ELISA.
Flat bottom, 96 well Corning High Binding ELISA plates were coated overnight (4° C.) with 150 μL/well of 3 μg/ml murine anti-human TNF-α MAb (R&D Systems #MAB210). Wells were then blocked for 1 hr at room temperature with 200 μL/well of CaCl2-free ELISA buffer supplemented to contain 20 mg/ml BSA (standard ELISA buffer: […], 150 mM NaCl, 2 mM CaCl2, 0.15 mM thimerosal, pH 7.4). Plates were washed and replenished with 100 μl of test supernatants (diluted 1:3) or standards. Standards consisted of eleven 1.5-fold serial dilutions from a stock of 1 ng/ml recombinant human TNF (R&D Systems). Plates were incubated at room temperature for 1 hr on orbital shaker (300 rpm), washed and replenished with 100 μl/well of 0.5 ug/ml goat anti-human TNF-α (R&D systems #AB-210-NA) biotinylated at a 4:1 ratio. Plates were incubated for 40 min, washed and replenished with 100 μl/well of alkaline phosphatase-conjugated streptavidin (Jackson ImmunoResearch #016-050-084) at 0.02 ug/ml. Plates were incubated 30 min, washed and replenished with 200 μl/well of 1 mg/ml of p-nitrophenyl phosphate. After 30 min, plates were read at 405 nm on a Vmax plate reader.
Standard curve data were fit to a second order polynomial and unknown TNF-α concentrations determined from their OD by solving this equation for concentration. TNF concentrations were then plotted vs. test compound concentration using a second order polynomial. This equation was then used to calculate the concentration of test compounds causing a 50% reduction in TNF production.

Row | SMILES | IC50 [µM]
1 | COc1ccc(C(F)(F)F)cc1NC(=O)c1ccc(C)c(-c2ccc3nc(N)ncc3c2)c1 [Example 41, 3-(2-amino-6-quinazolinyl)-4-methyl-N-(2-(methyloxy)-5-(trifluoromethyl)phenyl)benzamide] | ≤ 25
2 | O=C(Nc1cccc(C(F)(F)F)c1)c1cccc(-c2ccc3ccnc(O)c3c2)c1 [Example 51, 3-(1-hydroxy-7-isoquinolinyl)-N-(3-(trifluoromethyl)phenyl)benzamide] | ≤ 25
3 | Nc1ncc2cc(-c3cccc(C(=O)Nc4cccc(C(F)(F)F)c4)c3)ccc2n1 [Example 52, 3-(2-amino-6-quinazolinyl)-N-(3-(trifluoromethyl)phenyl)benzamide] | ≤ 25
4 | CNc1ncc2cc(-c3cccc(C(=O)Nc4cccc(C(F)(F)F)c4)c3)ccc2n1 [Example 53, 3-(2-(methylamino)-6-quinazolinyl)-N-(3-(trifluoromethyl)phenyl)benzamide] | ≤ 25
5 | Nc1ncc2cc(-c3cccc(C(=O)Nc4cc(C(F)(F)F)ccc4N4CCCCC4)c3)ccc2n1 [Example 54, 3-(2-amino-6-quinazolinyl)-N-(2-(1-piperidinyl)-5-(trifluoromethyl)phenyl)benzamide] | ≤ 25
6 | CN(C)CCOc1ccc(-c2ccc3nc(N)ncc3c2)cc1C(=O)Nc1cccc(C(F)(F)F)c1 [Example 57, 5-(2-amino-6-quinazolinyl)-2-((2-(dimethylamino)ethyl)oxy)-N-(3-(trifluoromethyl)phenyl)benzamide] | ≤ 25
7 | CN1CCC(c2cc(NC(=O)c3csc(-c4ccc5nc(N)ncc5c4)c3)cc(C(F)(F)F)c2)CC1 [Example 58, 5-(2-amino-6-quinazolinyl)-N-(3-(1-methyl-4-piperidinyl)-5-(trifluoromethyl)phenyl)-3-thiophenecarboxamide] | ≤ 25
8 | CN(C)CCCN(C)c1c(Cl)cc(C(F)(F)F)cc1NC(=O)c1cc(-c2ccc3nc(N)ncc3c2)ccc1F [Example 59, 5-(2-amino-6-quinazolinyl)-N-(3-chloro-2-((3-(dimethylamino)propyl)(methyl)amino)-5-(trifluoromethyl)phenyl)-2-fluorobenzamide] | ≤ 25
9 | Cc1ccc(NC(=O)c2ccc(C)c(-c3ccc4nc(N)ncc4c3)c2)cc1NC(=O)CN1CCOCC1 [Example 62, 3-(2-amino-6-quinazolinyl)-4-methyl-N-(4-methyl-3-((4-morpholinylacetyl)amino)phenyl) benzamide] | ≤ 25
10 | CCN(CC)CC(=O)Nc1cccc(NC(=O)c2ccc(C)c(-c3ccc4nc(N)ncc4c3)c2)c1C [Example 63, 3-(2-amino-6-quinazolinyl)-N-(3-((N,N-diethylglycyl)amino)-2-methyiphenyl)-4-methylbenzamide] | ≤ 25
11 | CCN(CC)CC(=O)N1CC(C)(C)c2ccc(NC(=O)c3ccc(C)c(-c4ccc5nc(N)ncc5c4)c3)cc21 [Example 64, 3-(2-amino-6-quinazolinyl)-N-(1-(N,N-diethyiglycyl)-3,3-dimethyl-2,3-dihydro-1H-indol-6-yl)-4-methylbenzamide] | ≤ 25
12 | Cc1ccc(C(=O)Nc2ccc3c(c2)N(C(=O)CN2CCOCC2)CC3(C)C)cc1-c1ccc2nc(N)ncc2c1 [Example 65, 3-(2-amino-6-quinazolinyl)-N-(3,3-dimethyl-1-(4-morpholinytacetyl)-2,3-dihydro-1H-indol-6-yl)-4-methylbenzamide] | ≤ 25
13 | Cc1ccc(C(=O)Nc2ccc(OCCCN(C)C)cc2)cc1-c1ccc2nc(N)ncc2c1 [Example 69, 3-(2-amino-6-quinazolinyl)-N-(4-((3-(dimethylamino)propyl)oxy)phenyl)-4-methylbenzamide] | ≤ 25
14 | CCN(CC)CCOc1ccc(NC(=O)c2ccc(C)c(-c3ccc4nc(N)ncc4c3)c2)c(OC)c1 [Example 70, 3-(2-amino-6-quinazolinyl)-N-(4-((2-(diethylamino)ethyl)oxy)-2-(methyloxy)phenyl)-4-methylbenzamide] | ≤ 25
15 | CCN(CC)CCOc1ccc(OC)c(NC(=O)c2ccc(C)c(-c3ccc4nc(N)ncc4c3)c2)c1 [Example 71, 3-(2-amino-6-quinazolinyl)-N-(5-((2-(diethylamino)ethyl)oxy)-2-(methyloxy)phenyl)-4-methylbenzamide] | ≤ 25
16 | Cc1ccc(C(=O)Nc2cc(C(F)(F)F)ccc2N2CCN(C)CC2)cc1-c1ccc2nc(N)ncc2c1 [Example 74, 3-(2-amino-6-quinazolinyl)-4-methyl-N-(2-(4-methyl-1-piperazinyl)-5-(trifluoromethyl)phenyl)benzamide] | ≤ 25
17 | Cc1ccc(C(=O)Nc2cc(C(F)(F)F)ccc2N2CC[C@@H](N(C)C)C2)cc1-c1ccc2nc(N)ncc2c1 [Example 75, 3-(2-amino-6-quinazolinyl)-N-(2-((3R)-3-(dimethylamino)-1-pyrrolidinyl)-5-(trifluoromethyl)phenyl)-4-methylbenzamide] | ≤ 25
18 | Cc1ccc(C(=O)Nc2cc(C(F)(F)F)ccc2N2CCCCC2)cc1-c1ccc2nc(N)ncc2c1 [Example 76, 3-(2-amino-6-quinazolinyl)-4-methyl-N-(2-(1-piperidinyl)-5-(trifluoromethyl)phenyl)benzamide] | ≤ 25
19 | Cc1ccc(C(=O)Nc2cc(C(F)(F)F)ccc2C(F)(F)F)cc1-c1ccc2nc(N)ncc2c1 [Example 77, 3-(2-amino-6-quinazolinyl)-N-(2,5-bis(trifluoromethyl)phenyl)-4-methylbenzamide] | ≤ 25
20 | Cc1ccc(C(=O)Nc2cc(C(C)(C)C)ccc2C(C)(C)C)cc1-c1ccc2nc(N)ncc2c1 [Example 78, 3-(2-amino-6-quinazolinyl)-N-(2,5-bis(1,1-dimethylethyl)phenyl)-4-methylbenzamide] | ≤ 25
21 | Cc1ccc(C(=O)Nc2cc(C(F)(F)F)ccc2N2CCOCC2)cc1-c1ccc2nc(N)ncc2c1 [Example 79, 3-(2-amino-6-quinazolinyl)-4-methyl-N-(2-(4-morpholinyl)-5-(trifluoromethyl)phenyl)benzamide] | ≤ 25
22 | Cc1ccc(C(=O)Nc2cc(C(F)(F)F)ccc2N2CCCC2)cc1-c1ccc2nc(N)ncc2c1 [Example 80, 3-(2-amino-6-quinazolinyl)-4-methyl-N-(2-(1-pyrrolidinyl)-5-(trifluoromethyl)phenyl)benzamide] | ≤ 25
23 | Cc1ccc(C(=O)Nc2cc(C(F)(F)F)ccc2N(C)C)cc1-c1ccc2nc(N)ncc2c1 [Example 81, 3-(2-amino-6-quinazolinyl)-N-(2-(dimethylamino)-5-(trifluoromethyl)phenyl)-4-methylbenzamide] | ≤ 25
24 | Cc1ccc(C(=O)Nc2cc(C(F)(F)F)ccc2C(C)(C)CN(C)C)cc1-c1ccc2nc(N)ncc2c1 [Example 83, 3-(2-amino-6-quinazolinyl)-N-(2-(2-(dimethylamino)-1,1-dimethylethyl)-5-(trifluoromethyl)phenyl)-4-methylbenzamide] | ≤ 25
25 | CN(C)CCCN(C)c1ccc(C(F)(F)F)cc1NC(=O)c1cc(-c2ccc3nc(N)ncc3c2)ccc1F [Example 84, 5-(2-amino-6-quinazolinyl)-N-(2-((3-(dimethylamino)propyl)(methyl)amino)-5-(trifluoromethyl)phenyl)-2-fluorobenzamide] | ≤ 25
26 | Cc1ccc(C(=O)Nc2cc(C(F)(F)F)ccc2N(C)CCCN(C)C)cc1-c1ccc2nc(N)ncc2c1 [Example 114, 3-(2-amino-6-quinazolinyl)-N-(2-((3-(dimethylamino)propyl)(methyl)amino)-5-(trifluoromethyl)phenyl)-4-methylbenzamide] | ≤ 25
27 | Cc1cc(NC(=O)c2ccc(C)c(-c3ccc4nc(N)ncc4c3)c2)c(N(C)CCCN(C)C)cc1C [Example 116, 3-(2-amino-6-quinazolinyl)-N-(2-((3-(dimethylamino)propyl)(methyl)amino)-4,5-dimethylphenyl)-4-methylbenzamide] | ≤ 25
28 | Cc1ccc(C(=O)Nc2c(N(C)CCCN(C)C)ccc(C(F)(F)F)c2C)cc1-c1ccc2nc(N)ncc2c1 [Example 117, 3-(2-amino-6-quinazolinyl)-N-(6-((3-(dimethylamino)propyl)(methyl)amino)-2-methyl-3-(trifluoromethyl)phenyl)-4-methylbenzamide] | ≤ 25
